Experimental findings from patent US11020395B2, “Cycloalkyl substituted triazole compounds as agonists of the APJ receptor” (AMGEN INC., priority 2016, dated 2021) are described below.

human APJ receptor, sequence (P35414 whole entry): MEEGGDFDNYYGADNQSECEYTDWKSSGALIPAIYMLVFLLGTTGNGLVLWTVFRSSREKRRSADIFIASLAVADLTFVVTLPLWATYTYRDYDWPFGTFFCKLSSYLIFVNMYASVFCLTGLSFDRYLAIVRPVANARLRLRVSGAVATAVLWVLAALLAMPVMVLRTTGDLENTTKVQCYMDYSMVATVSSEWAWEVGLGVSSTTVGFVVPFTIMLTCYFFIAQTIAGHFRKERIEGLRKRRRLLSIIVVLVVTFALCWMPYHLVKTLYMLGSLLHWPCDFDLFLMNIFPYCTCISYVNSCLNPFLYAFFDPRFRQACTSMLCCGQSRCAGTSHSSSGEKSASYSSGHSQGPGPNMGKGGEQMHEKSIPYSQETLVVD

In this assay the target is human APJ receptor (Homo sapiens (Human), UniProt P35414). In words: [35S]GTPγS binding assay on membranes from CHO cells stably expressing human APJ receptor. The assay is classed as biochemical. The following applies: [35S]GTPγS SPA, read-out: Activity hAPJ SPA EC50 IP. The method in brief:
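Agonist-stimulated [35S]GTPγS binding measured on membranes of a stable human APJ CHO line, 90 min at room temperature, with GDP, MgCl2 and NaCl levels optimized beforehand. Means of independent runs fitted by non-linear regression to give EC50.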
The EC50 is the concentration at which the effect is half-maximal. On to `COc1cccc(OC)c1-n1c(NS(=O)(=O)[C@@H](C)[C@H](OC)c2ncc(Cl)cn2)nnc1[C@H]1C[C@H](F)C1` (single isomer, unassigned) [Example 151.0, (1R,2S)-1-(5-chloropyrimidin-2-yl)-N-(4-(2,6-dimethoxyphenyl)-5-((1r,3S)-3-fluorocyclobutyl)-4H-1,2,4-triazol-3-yl)-1-methoxypropane-2-sulfonamide or (1R,2S)-1-(5-chloropyrimidin-2-yl)-N-(4-(2,6-dimethoxyphenyl)-5-((1r,3R)-3-fluorocyclobutyl)-4H-1,2,4-triazol-3-yl)-1-methoxypropane-2-sulfonamide], for which the EC50 was found to be 5.4 nM.
Take `COc1cccc(OC)c1-n1c(NS(=O)(=O)[C@@H](C)[C@H](OC)c2ncc(Cl)cn2)nnc1[C@H]1C[C@H](F)C1` (single isomer, unassigned) [Example 152.0, (1R,2S)-1-(5-chloropyrimidin-2-yl)-N-(4-(2,6-dimethoxyphenyl)-5-((1r,3S)-3-fluorocyclobutyl)-4H-1,2,4-triazol-3-yl)-1-methoxypropane-2-sulfonamide or (1R,2S)-1-(5-chloropyrimidin-2-yl)-N-(4-(2,6-dimethoxyphenyl)-5-((1s,3R)-3-fluorocyclobutyl)-4H-1,2,4-triazol-3-yl)-1-methoxypropane-2-sulfonamide]: the EC50 turned out to be 4.2 nM.
For `COc1cccc(OC)c1-n1c(NS(=O)(=O)[C@@H](C)[C@H](OC)c2ncc(Cl)cn2)nnc1[C@H]1C[C@H](Cl)C1` (single isomer, unassigned) [Example 153.0, (1R,2S)-1-(5-chloropyrimidin-2-yl)-N-(4-(2,6-dimethoxyphenyl)-5-((1r,3S)-3-chlorocyclobutyl)-4H-1,2,4-triazol-3-yl)-1-methoxypropane-2-sulfonamide or (1R,2S)-1-(5-chloropyrimidin-2-yl)-N-(4-(2,6-dimethoxyphenyl)-5-((1s,3R)-3-chlorocyclobutyl)-4H-1,2,4-triazol-3-yl)-1-methoxypropane-2-sulfonamide], the EC50 came out at 1.5 nM.
`COc1cccc(OC)c1-n1c(NS(=O)(=O)[C@@H](C)[C@H](OC)c2ncc(Cl)cn2)nnc1[C@H]1C[C@H](Cl)C1` (single isomer, unassigned) [Example 154.0, (1R,2S)-1-(5-chloropyrimidin-2-yl)-N-(4-(2,6-dimethoxyphenyl)-5-((1r,3S)-3-chlorocyclobutyl)-4H-1,2,4-triazol-3-yl)-1-methoxypropane-2-sulfonamide or (1R,2S)-1-(5-chloropyrimidin-2-yl)-N-(4-(2,6-dimethoxyphenyl)-5-((1s,3R)-3-chlorocyclobutyl)-4H-1,2,4-triazol-3-yl)-1-methoxypropane-2-sulfonamide]: the 50% effective concentration (EC50) amounted to 0.18 nM.
Consider `COc1cccc(OC)c1-n1c(NS(=O)(=O)[C@@H](C)[C@H](OC)c2ncc(Cl)cn2)nnc1[C@H]1C[C@H](OC)C1` (single isomer, unassigned) [Example 155.0, (1R,2S)-1-(5-chloropyrimidin-2-yl)-N-(4-(2,6-dimethoxyphenyl)-5-((1r,3S)-3-methoxycyclobutyl)-4H-1,2,4-triazol-3-yl)-1-methoxypropane-2-sulfonamide or (1R,2S)-1-(5-chloropyrimidin-2-yl)-N-(4-(2,6-dimethoxyphenyl)-5-((1s,3R)-3-methoxycyclobutyl)-4H-1,2,4-triazol-3-yl)-1-methoxypropane-2-sulfonamide], for which the EC50 was found to be 9.4 nM.
For `COc1cccc(OC)c1-n1c(NS(=O)(=O)[C@@H](C)[C@H](OC)c2ncc(Cl)cn2)nnc1[C@H]1C[C@H](OC)C1` (single isomer, unassigned) [Example 156.0, (1R,2S)-1-(5-chloropyrimidin-2-yl)-N-(4-(2,6-dimethoxyphenyl)-5-((1r,3S)-3-methoxycyclobutyl)-4H-1,2,4-triazol-3-yl)-1-methoxypropane-2-sulfonamide or (1R,2S)-1-(5-chloropyrimidin-2-yl)-N-(4-(2,6-dimethoxyphenyl)-5-((1s,3R)-3-methoxycyclobutyl)-4H-1,2,4-triazol-3-yl)-1-methoxypropane-2-sulfonamide], the EC50 turned out to be 11 nM.
Under `COc1cccc(OC)c1-n1c(NS(=O)(=O)[C@@H](C)[C@H](OC)c2ncc(Cl)cn2)nnc1[C@H]1CCC1(F)F` (single isomer, unassigned) [Example 159.0, (1R,2S)-1-(5-chloropyrimidin-2-yl)-N-(5-((R)-2,2-difluorocyclobutyl)-4-(2,6-dimethoxyphenyl)-4H-1,2,4-triazol-3-yl)-1-methoxypropane-2-sulfonamide or (1R,2S)-1-(5-chloropyrimidin-2-yl)-N-(5-((S)-2,2-difluorocyclobutyl)-4-(2,6-dimethoxyphenyl)-4H-1,2,4-triazol-3-yl)-1-methoxypropane-2-sulfonamide] stands 8 nM.
Consider `COc1cccc(OC)c1-n1c(NS(=O)(=O)[C@@H](C)[C@H](OC)c2ncc(Cl)cn2)nnc1[C@H]1CCC1(F)F` (single isomer, unassigned) [Example 160.0, (1R,2S)-1-(5-chloropyrimidin-2-yl)-N-(5-((R)-2,2-difluorocyclobutyl)-4-(2,6-dimethoxyphenyl)-4H-1,2,4-triazol-3-yl)-1-methoxypropane-2-sulfonamide or (1R,2S)-1-(5-chloropyrimidin-2-yl)-N-(5-((S)-2,2-difluorocyclobutyl)-4-(2,6-dimethoxyphenyl)-4H-1,2,4-triazol-3-yl)-1-methoxypropane-2-sulfonamide], for which the EC50 was determined as 27 nM.
Consider `COc1ncnc(OC)c1-n1c(NS(=O)(=O)[C@@H](C)[C@H](OC)c2ncc(Cl)cn2)nnc1[C@H]1C[C@@H](F)C1` (single isomer, unassigned) [Example 162.0, (1R,2S)-1-(5-chloropyrimidin-2-yl)-N-(4-(4,6-dimethoxypyrimidin-5-yl)-5-((1s,3R)-3-fluorocyclobutyl)-4H-1,2,4-triazol-3-yl)-1-methoxypropane-2-sulfonamide or (1R,2S)-1-(5-chloropyrimidin-2-yl)-N-(4-(4,6-dimethoxypyrimidin-5-yl)-5-((1r,3S)-3-fluorocyclobutyl)-4H-1,2,4-triazol-3-yl)-1-methoxypropane-2-sulfonamide], for which the EC50 stood at 14 nM.
`COc1ncnc(OC)c1-n1c(NS(=O)(=O)[C@@H](C)[C@H](OC)c2ncc(Cl)cn2)nnc1[C@H]1C[C@@H](F)C1` (single isomer, unassigned) [Example 163.0, (1R,2S)-1-(5-chloropyrimidin-2-yl)-N-(4-(4,6-dimethoxypyrimidin-5-yl)-5-((1s,3R)-3-fluorocyclobutyl)-4H-1,2,4-triazol-3-yl)-1-methoxypropane-2-sulfonamide or (1R,2S)-1-(5-chloropyrimidin-2-yl)-N-(4-(4,6-dimethoxypyrimidin-5-yl)-5-((1r,3S)-3-fluorocyclobutyl)-4H-1,2,4-triazol-3-yl)-1-methoxypropane-2-sulfonamide]: the EC50 is 46 nM.
For `COc1ncnc(OC)c1-n1c(NS(=O)(=O)[C@@H](C)[C@H](OC)c2ncc(Cl)cn2)nnc1[C@H]1C[C@@H](Cl)C1` (single isomer, unassigned) [Example 164.0, (1R,2S)-1-(5-chloropyrimidin-2-yl)-N-(4-(4,6-dimethoxypyrimidin-5-yl)-5-((1s,3R)-3-chlorocyclobutyl)-4H-1,2,4-triazol-3-yl)-1-methoxypropane-2-sulfonamide or (1R,2S)-1-(5-chloropyrimidin-2-yl)-N-(4-(4,6-dimethoxypyrimidin-5-yl)-5-((1r,3S)-3-chlorocyclobutyl)-4H-1,2,4-triazol-3-yl)-1-methoxypropane-2-sulfonamide], the EC50 was 0.54 nM.
Consider `COc1ncnc(OC)c1-n1c(NS(=O)(=O)[C@@H](C)[C@H](OC)c2ncc(Cl)cn2)nnc1[C@H]1C[C@@H](Cl)C1` (single isomer, unassigned) [Example 165.0, (1R,2S)-1-(5-chloropyrimidin-2-yl)-N-(4-(4,6-dimethoxypyrimidin-5-yl)-5-((1s,3R)-3-chlorocyclobutyl)-4H-1,2,4-triazol-3-yl)-1-methoxypropane-2-sulfonamide or (1R,2S)-1-(5-chloropyrimidin-2-yl)-N-(4-(4,6-dimethoxypyrimidin-5-yl)-5-((1r,3S)-3-chlorocyclobutyl)-4H-1,2,4-triazol-3-yl)-1-methoxypropane-2-sulfonamide], for which the EC50 came out at 9.7 nM.
Consider `COc1ncnc(OC)c1-n1c(NS(=O)(=O)[C@@H](C)[C@@H](OC(C)C)c2ncc(Cl)cn2)nnc1[C@@H]1CC[C@@H]1C(F)F` (single isomer, unassigned) [Example 167.0, (1S,2S)-1-(5-chloropyrimidin-2-yl)-N-(5-((1R,2S)-2-(difluoromethyl)cyclobutyl)-4-(4,6-dimethoxypyrimidin-5-yl)-4H-1,2,4-triazol-3-yl)-1-isopropoxypropane-2-sulfonamide or (1S,2S)-1-(5-chloropyrimidin-2-yl)-N-(5-((1S,2R)-2-(difluoromethyl)cyclobutyl)-4-(2,6-dimethoxypyrimidin-5-yl)-4H-1,2,4-triazol-3-yl)-1-isopropoxypropane-2-sulfonamide], for which the EC50 came to 13 nM.
Regarding `COc1ncnc(OC)c1-n1c(NS(=O)(=O)[C@@H](C)[C@@H](OC(C)C)c2ncc(Cl)cn2)nnc1[C@@H]1CC[C@@H]1C(F)F` (single isomer, unassigned) [Example 168.0, (1S,2S)-1-(5-chloropyrimidin-2-yl)-N-(5-((1R,2S)-2-(difluoromethyl)cyclobutyl)-4-(4,6-dimethoxypyrimidin-5-yl)-4H-1,2,4-triazol-3-yl)-1-isopropylpropane-2-sulfonamide or (1S,2S)-1-(5-chloropyrimidin-2-yl)-N-(5-((1S,2R)-2-(difluoromethyl)cyclobutyl)-4-(4,6-dimethoxypyrimidin-5-yl)-4H-1,2,4-triazol-3-yl)-1-isopropoxypropane-2-sulfonamide], the EC50 came out at 8 nM.
